These results are taken from patent US20210353721A1, “METHODS AND COMPOSITIONS RELATING TO INHIBITING CARDIOVASCULAR CALCIFICATION VIA ANNEXIN A1” (THE BRIGHAM AND WOMEN'S HOSPITAL, INC., priority 2018, published 2021).

Series [1] has as its target ANXA1 on human VIC-derived EVs (Homo sapiens, UniProt P04083). To be noted: 0.48 mmol/L EDTA in PBS, 30 minutes at 37° C.
Procedure: (§1) ANXA1 EVs surface localization was assessed by isolating human SMC and VIC EVs. 10 mL of conditioned media was centrifuged at 100,000 g for 40 minutes, and the resulting EVs pellet was resuspended in PBS or PBS containing 0.48 mmol/L EDTA and incubated for 30 minutes at 37° C. EVs were pelleted a second time at 100,000 g for 40 minutes. The supernatant was collected, and the pellet was resuspended in 100 μl PBS. Samples were incubated with 6×-loading buffer (Boston Bioproducts) and boiled for 10 minutes, prior to analysis by western blot. ANXA1 released into the supernatant was assessed as being on the surface of EVs.
The target in series [2] is ANXA1 on human SMC-derived EVs (Homo sapiens, UniProt P04083). To be noted: 0.48 mmol/L EDTA in PBS, 30 minutes at 37° C.
Procedure: as §1
Another series has as its target T1, human ANXA1 (Homo sapiens, UniProt P04083).
T1 construct: purchased R&D Systems
T1 sequence (P04083 1-346): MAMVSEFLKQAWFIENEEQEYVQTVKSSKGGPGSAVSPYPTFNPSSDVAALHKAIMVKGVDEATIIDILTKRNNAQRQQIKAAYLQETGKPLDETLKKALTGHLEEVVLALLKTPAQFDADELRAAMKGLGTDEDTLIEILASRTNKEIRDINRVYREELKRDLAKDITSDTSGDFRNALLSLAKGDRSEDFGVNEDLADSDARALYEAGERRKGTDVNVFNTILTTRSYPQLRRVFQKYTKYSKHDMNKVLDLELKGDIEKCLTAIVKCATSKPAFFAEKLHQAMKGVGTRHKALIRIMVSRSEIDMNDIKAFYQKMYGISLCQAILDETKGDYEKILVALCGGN
The series is described as follows: Vesicle tethering assay (turbidity of extrusion generated phosphatidylserine vesicles). In kind it is biochemical. As for the experimental part: Vesicle Tethering Assay. Vesicle tethering was assessed by using a previously reported protocol (19) with modifications to adjust to a 96-well plate reader format. Large unilaminar vesicles of ˜100 nm in diameter were generated by filter extrusion. Briefly, 2.5 mg of phosphatidylserine (Avanti Polar Lipids) was solubilized in 1 mL of buffer containing: 10 mmol/L Hepes (Sigma, St. Louis, Mo.), 100 mmol/L NaCl (Sigma), 100 μmon ethylenediaminetetraacetic acid (Boston BioProducts, Ashland, Mass.), pH 6. The lipid mixture was run through an extruder containing 0.1 μm polycarbonate membranes (Avanti Polar Lipids) ten times, during which point the lipid mixture went from cloudy to clear in appearance. Vesicles were assessed for correct size and abundance prior to use by NanoSight nanoparticle tracking analysis. […] 27 jd of extrusion generated vesicles were added to each well and vesicle aggregation was measured at wavelength 350 on a SpectraMax M5 96-well plate reader (Molecular Devices, San Jose, Calif.). For calcium chelation, 0.48 mmol/L ethylenediaminetetraacetic acid was incubated with 1 μg human ANXA1 protein for five minutes at room temperature prior to adding the extrusion generated vesicles, after which the reaction was carried out for 20 minutes and then aggregation was determined on a plate reader. […]

Another series has as its system ANXA1 loading on EVs. The series is described as follows: ANXA1 loading on EVs derived from SMCs treated with mdivi-1 (western blot). It is filed as cell-based. To be noted: human SMCs in OM, 14 days. How it is done:
Primary Cell Culture. Primary human coronary artery SMCs were obtained from Promocell (Heidelberg, Germany) and expanded in SMC Growth Medium 2 (Promocell) supplemented with epidermal growth factor (0.5 ng/mL), insulin (5 μg/mL) basic fibroblast growth factor- B (2 ng/mL), and 5% fetal bovine serum. Primary human VICs were obtained from human aortic valve tissue using collagenase digestion (28, 30). Tissue-derived SMCs were confirmed as alpha smooth muscle actin-positive by FACS (30). Tissue-derived VICs were confirmed as vimentin positive by immunohistochemistry (28). Cells were cultured at 37° C. (5% CO2, 90% humidity) and used between passages 1 and 5. […] Tissue non-specific alkaline phosphatase (TNAP) activity was analyzed after 14 days in culture using whole cell lysates and the TNAP enzyme activity assay (BioVision, Inc., Milpitas, Calif.), according to the manufacturer's protocol. Calcification was analyzed in cells after 21 days in culture by incubating culture wells with OsteoSense680 (1:100), near-infrared based bisphosphonate calcium tracer, for 24 hours at 37° C. […]
RNA and Protein Analysis. […] ANXA1 EVs surface localization was assessed by isolating human SMC and VIC EVs. […]
Background: Immunoblotting shows a protein as a band on a membrane.

Series [3] concerns the target dynamin-related protein 1 (DRP1) (Homo sapiens, UniProt O00429). The following applies: OM; cited from earlier work.
Series [4] can be described thus: Annexin vesicle binding (confocal, swelling generated phosphatidylserine vesicles). The following applies: 2 μg ANXA1-GFP, 1 mmol/L CaCl2, five minutes. As for the experimental part: Annexin Vesicle Binding. Giant unilamellar vesicles were generated using a previously described protocol (50) with some modifications. Briefly, for the confocal-based ANXA1 vesicle binding assay, 12 mm diameter cover glass circles were coated with 5% polyvinyl alcohol (Millipore, Burlington, Mass.) in water and left to dry overnight. Dried slides were then coated with 20 μl of 10 mg/mL phosphatidylserine (Avanti Polar Lipids, Alabaster, Ala.) in chloroform containing 0 1% DiR′; DiIC18(7) 1,1′-Dioctadecyl-3,3,3′,3′-Tetramethylindotricarbocyanine Iodide) (Fisher Scientific) and dried under vacuum. 1 mL of tris buffer (pH 6) was added to cover the coated cover glass circle in a 24-well plate, and giant unilaminar vesicles were formed by swelling at room temperature for 1 hour. Vesicles were detached from the cover glass by gently tapping the plate directly beneath the slide. ANXA1 tagged green fluorescent protein (ANXA1-GFP) was obtained by transfecting HEK-293 cells (ATCC, Manassas, Va.) with human ANXA1-GFP plasmid (OriGene, Rockville, Md., #RG201569). […] GFP laser settings were adjusted such that no GFP signal was detected in samples without ANXA1-GFP added.

Sequence of dynamin-related protein 1 (DRP1) (O00429 whole entry): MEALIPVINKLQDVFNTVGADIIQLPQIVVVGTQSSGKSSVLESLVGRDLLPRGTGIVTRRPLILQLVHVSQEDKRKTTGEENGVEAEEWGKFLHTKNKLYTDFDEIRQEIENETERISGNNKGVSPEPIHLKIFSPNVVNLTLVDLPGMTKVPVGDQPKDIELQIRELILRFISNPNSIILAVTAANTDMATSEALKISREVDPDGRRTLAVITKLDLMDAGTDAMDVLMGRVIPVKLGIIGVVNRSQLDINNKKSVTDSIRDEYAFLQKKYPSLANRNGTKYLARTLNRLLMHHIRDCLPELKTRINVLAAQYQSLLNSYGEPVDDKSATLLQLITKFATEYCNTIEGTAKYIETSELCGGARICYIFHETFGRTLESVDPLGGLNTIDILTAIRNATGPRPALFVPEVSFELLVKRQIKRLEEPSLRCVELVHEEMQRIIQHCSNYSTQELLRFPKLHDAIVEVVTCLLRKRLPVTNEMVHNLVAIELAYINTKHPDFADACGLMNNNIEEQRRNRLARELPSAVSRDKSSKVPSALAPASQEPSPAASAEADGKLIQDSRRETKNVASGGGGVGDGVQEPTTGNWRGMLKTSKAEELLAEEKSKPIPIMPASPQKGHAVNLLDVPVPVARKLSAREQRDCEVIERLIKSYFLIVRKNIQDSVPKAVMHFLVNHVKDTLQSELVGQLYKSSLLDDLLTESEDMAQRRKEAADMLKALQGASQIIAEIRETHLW

As for `O=C(O)CN(CCN(CC(=O)O)CC(=O)O)CC(=O)O` [EDTA, ethylenediaminetetraacetic acid], the “ANXA1 release from EVs” value in series [1] and in series [2] was “increased” throughout. The ANXA1-mediated vesicle aggregation result at human ANXA1 (0.48 mmol/L EDTA, 1 μg human ANXA1 protein, 20 minutes) was “attenuated”.

On to `COc1cc(-n2c(S)nc3ccccc3c2=O)c(Cl)cc1Cl` [mdivi-1], for which the “increased ANXA1 loading on EVs in OM” value in the series on ANXA1 loading on EVs is recorded as “suppressed”. For the same molecule, in series [3], the “SMC and VIC calcification” value is on record as “suppressed”; the intracellular calcium storage entry is “increased”; the mitochondrial fragmentation entry is on record as “reduced”.

B1: GFP-tagged ANXA1: green fluorescent protein tagged human ANXA1 immunopurified from transfected HEK-293 cells (protein)
chain: MAMVSEFLKQAWFIENEEQEYVQTVKSSKGGPGSAVSPYPTFNPSSDVAALHKAIMVKGVDEATIIDILTKRNNAQRQQIKAAYLQETGKPLDETLKKALTGHLEEVVLALLKTPAQFDADELRAAMKGLGTDEDTLIEILASRTNKEIRDINRVYREELKRDLAKDITSDTSGDFRNALLSLAKGDRSEDFGVNEDLADSDARALYEAGERRKGTDVNVFNTILTTRSYPQLRRVFQKYTKYSKHDMNKVLDLELKGDIEKCLTAIVKCATSKPAFFAEKLHQAMKGVGTRHKALIRIMVSRSEIDMNDIKAFYQKMYGISLCQAILDETKGDYEKILVALCGGN
modifications: left off: large carriers
notes: green fluorescent protein tagged human ANXA1 immunopurified from transfected HEK-293 cells
For the molecule B1, the “ANXA1 localization on tethered vesicles” value in series [4] is on record as “enriched ANXA1 at tethered vesicle membrane contact sites”.

B2: human ANXA1 protein: recombinant human ANXA1 (R&D Systems) (protein)
chain: AMVSEFLKQAWFIENEEQEYVQTVKSSKGGPGSAVSPYPTFNPSSDVAALHKAIMVKGVDEATIIDILTKRNNAQRQQIKAAYLQETGKPLDETLKKALTGHLEEVVLALLKTPAQFDADELRAAMKGLGTDEDTLIEILASRTNKEIRDINRVYREELKRDLAKDITSDTSGDFRNALLSLAKGDRSEDFGVNEDLADSDARALYEAGERRKGTDVNVFNTILTTRSYPQLRRVFQKYTKYSKHDMNKVLDLELKGDIEKCLTAIVKCATSKPAFFAEKLHQAMKGVGTRHKALIRIMVSRSEIDMNDIKAFYQKMYGISLCQAILDETKGDYEKILVALCGGN
As for B2, the “vesicle aggregation (turbidity)” value with human ANXA1 (0 up to 5 μg recombinant ANXA1, 1 mmol/L CaCl2, ~150 nm phosphatidylserine vesicles) is “time- and concentration-dependent vesicle aggregation”.
